Read-outs that look alike come from different tables or passages of the source.
Experiments:
HCT116 MTAP null cells = experiment: HCT116 MTAP null cell line proliferation (CellTiter-Glo cell viability, 6 days); type: cell-based; settings: HCT116 MTAP null cells, 6 days of treatment, CellTiter-Glo cell viability, read-out: HCT-116 MTAP null IC50
Procedure, shortened: (§1)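 Isogenic HCT116 pair (both MTAP alleles knocked out vs parent) in RPMI 1640 + 10% FBS, seeded overnight at 37° C, 5% CO2, then exposed 6 days to 8- or 9-point 1:3 dilutions from 1 or 10 μM. CellTiter-Glo luminescence; IC50 from sigmoidal fit, Hill slope fixed −1, top 100%, or 4-parameter logistic.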

HCT116 WT cells = experiment: HCT116 WT cell line proliferation (CellTiter-Glo cell viability, 6 days); type: cell-based; settings: HCT116 WT (parent) cells, 6 days of treatment, CellTiter-Glo cell viability, read-out: HCT-116 WT IC50
Procedure, shortened: as §1

| IC50 (HCT116 MTAP null cells; HCT116-MTAP null, 144 h) [nM] | IC50 (HCT116 WT cells; Homo sapiens, HCT-116, 144 h) [nM] | IC50 (HCT116 MTAP null cells) [nM] | IC50 (HCT116 WT cells) [nM] | SMILES |
| --- | --- | --- | --- | --- |
| 22 | 765 |  |  | C[C@@H]1COC[C@H](c2ccc(OC(F)(F)F)cn2)N1C(=O)c1cc2c3c(c(N)nc2cn1)COC3 (racemic) [Example 359, (4-amino-1,3-dihydrofuro[3,4-c][1,7]naphthyridin-8-yl)((3R,5S)-3-methyl-5-(5-(trifluoromethoxy)-2-pyridinyl)-4-morpholinyl)methanone and (4-amino-1,3-dihydrofuro[3,4-c][1,7]naphthyridin-8-yl)((3S,5R)-3-methyl-5-(5-(trifluoromethoxy)-2-pyridinyl)-4-morpholinyl)methanone] |
| 457 | 2030 |  |  | Nc1nc2ccc(C(=O)N3CCC(F)(F)CC3c3ccc(Br)cc3)cc2c2c1COC2 (racemic) [Example 368, (4-amino-1,3-dihydrofuro[3,4-c]quinolin-8-yl)-[rac-(2R)-2-(4-bromophenyl)-4,4-difluoro-1-piperidyl]methanone] |
| 23 | 613 |  |  | C[C@H]1OCc2c1c(N)nc1ccc(C(=O)N3[C@@H](C)COC[C@H]3c3ccc(C(F)(F)F)cn3)cc21 (racemic) [Example 372, ((3R)-4-amino-3-methyl-1,3-dihydrofuro[3,4-c]quinolin-8-yl)((3R,5S)-3-methyl-5-(5-(trifluoromethyl)-2-pyridinyl)-4-morpholinyl)methanone and ((3R)-4-amino-3-methyl-1,3-dihydrofuro[3,4-c]quinolin-8-yl)((3S,5R)-3-methyl-5-(5-(trifluoromethyl)-2-pyridinyl)-4-morpholinyl)methanone] |
| 3 | 58 |  |  | C[C@H]1COC[C@@H](c2ccc(OC(F)(F)F)cn2)N1C(=O)c1cc2c3c(c(N)nc2cc1Cl)COC3 (racemic) [Example 375, (4-amino-7-chloro-1,3-dihydrofuro[3,4-c]quinolin-8-yl)((3R,5S)-3-methyl-5-(5-(trifluoromethoxy)-2-pyridinyl)-4-morpholinyl)methanone and (4-amino-7-chloro-1,3-dihydrofuro[3,4-c]quinolin-8-yl)((3S,5R)-3-methyl-5-(5-(trifluoromethoxy)-2-pyridinyl)-4-morpholinyl)methanone] |
| 37 | 1110 |  |  | C[C@H]1OCc2c1c(N)nc1ccc(C(=O)N3[C@@H](C)COC[C@H]3c3ccc(OC(F)(F)F)cn3)cc21 (racemic) [Example 377, ((3R)-4-amino-3-methyl-1,3-dihydrofuro[3,4-c]quinolin-8-yl)((3R,5S)-3-methyl-5-(5-(trifluoromethoxy)-2-pyridinyl)-4-morpholinyl)methanone and ((3R)-4-amino-3-methyl-1,3-dihydrofuro[3,4-c]quinolin-8-yl)((3S,5R)-3-methyl-5-(5-(trifluoromethoxy)-2-pyridinyl)-4-morpholinyl)methanone] |
|  |  | 84 | 2570 | C[C@@H]1COC[C@H](c2ccc(OC(F)F)nn2)N1C(=O)c1cc2c3c(c(N)nc2cn1)COC3 (racemic) [Example 381, (4-amino-1,3-dihydrofuro[3,4-c][1,7]naphthyridin-8-yl)((3R,5S)-3-(6-(difluoromethoxy)-3-pyridazinyl)-5-methyl-4-morpholinyl)methanone and (4-amino-1,3-dihydrofuro[3,4-c][1,7]naphthyridin-8-yl)((3S,5R)-3-(6-(difluoromethoxy)-3-pyridazinyl)-5-methyl-4-morpholinyl)methanone] |

More lines, now with the values behind:

| SMILES | IC50 (HCT116 MTAP null cells; HCT116-MTAP null, 144 h) [nM] | IC50 (HCT116 WT cells; Homo sapiens, HCT-116, 144 h) [nM] | IC50 (HCT116 MTAP null cells) [nM] | IC50 (HCT116 WT cells) [nM] |
| --- | --- | --- | --- | --- |
| Cc1ccccc1C1COCCN1C(=O)c1ccc2nc(N)c3c(c2c1)COC3 (racemic) [Example 362, (4-amino-1,3-dihydrofuro[3,4-c]quinolin-8-yl)-[rac-(3S)-3-(o-tolyl)morpholin-4-yl]methanone] | 3410 | > 10000 |  |  |
| Nc1nc2ccc(C(=O)N3CCOCC3c3ccc(F)cc3)cc2c2c1COC2 (racemic) [Example 363, (4-amino-1,3-dihydrofuro[3,4-c]quinolin-8-yl)-[rac-(3S)-3-(4-fluorophenyl)morpholin-4-yl]methanone] | 1910 | > 10000 |  |  |
| Nc1nc2ccc(C(=O)N3CCOCC3c3cccc(F)c3)cc2c2c1COC2 (racemic) [Example 364, (4-amino-1,3-dihydrofuro[3,4-c]quinolin-8-yl)-[rac-(3S)-3-(3-fluorophenyl)morpholin-4-yl]methanone] | 3480 | > 10000 |  |  |
| COc1ccc(C2COCCN2C(=O)c2ccc3nc(N)c4c(c3c2)COC4)cc1 (racemic) [Example 365, (4-amino-1,3-dihydrofuro[3,4-c]quinolin-8-yl)-[rac-(3S)-3-(4-methoxyphenyl)morpholin-4-yl]methanone] | 1560 | > 10000 |  |  |
| C[C@H]1OCc2c1c(N)nc1ccc(C(=O)N3CCOC[C@H]3c3ccc(F)c(OC(F)(F)F)c3)cc21 (racemic) [Example 373, ((3R)-4-amino-3-methyl-1,3-dihydrofuro[3,4-c]quinolin-8-yl)((3R)-3-(4-fluoro-3-(trifluoromethoxy)phenyl)-4-morpholinyl)methanone and ((3R)-4-amino-3-methyl-1,3-dihydrofuro[3,4-c]quinolin-8-yl)((3S)-3-(4-fluoro-3-(trifluoromethoxy)phenyl)-4-morpholinyl)methanone] | 442 | 7820 |  |  |
| C[C@H]1OCc2c1c(N)nc1ccc(C(=O)N3CCOC[C@H]3c3ccc(F)c(C(F)(F)F)c3)cc21 (racemic) [Example 374, ((3R)-4-amino-3-methyl-1,3-dihydrofuro [3,4-c]quinolin-8-yl)((3R)-3-(4-fluoro-3-(trifluoromethyl)phenyl)-4-morpholinyl)methanone and ((3R)-4-amino-3-methyl-1,3-dihydrofuro[3,4-c]quinolin-8-yl)((3S)-3-(4-fluoro-3-(trifluoromethyl)phenyl)-4-morpholinyl)methanone] | 161 | 9890 |  |  |
| C[C@H]1COC[C@@H](c2ccc(OC(F)(F)F)cn2)N1C(=O)c1ccc2nc(N)c3c(c2c1)COC3 (racemic) [Example 376, (4-amino-1,3-dihydrofuro[3,4-c]quinolin-8-yl)((3R,5S)-3-methyl-5-(5-(trifluoromethoxy)-2-pyridinyl)-4-morpholinyl)methanone and (4-amino-1,3-dihydrofuro[3,4-c]quinolin-8-yl)((3S,5R)-3-methyl-5-(5-(trifluoromethoxy)-2-pyridinyl)-4-morpholinyl)methanone] | 29 | 1220 |  |  |
| C[C@H]1COC[C@@H](c2ccc(OC(F)(F)F)cn2)N1C(=O)c1cc2c3c(c(N)nc2cc1F)COC3 (racemic) [Example 378, (4-amino-7-fluoro-1,3-dihydrofuro[3,4-c]quinolin-8-yl)((3R,5S)-3-methyl-5-(5-(trifluoromethoxy)-2-pyridinyl)-4-morpholinyl)methanone and (4-amino-7-fluoro-1,3-dihydrofuro[3,4-c]quinolin-8-yl)((3S,5R)-3-methyl-5-(5-(trifluoromethoxy)-2-pyridinyl)-4-morpholinyl)methanone] | 15 | 190 |  |  |
| C[C@@H]1OCc2c1c(N)nc1cnc(C(=O)N3[C@H](C)COC[C@@H]3c3ccc(OC(F)(F)F)cn3)cc21 (racemic) [Example 379, ((3S)-4-amino-3-methyl-1,3-dihydrofuro[3,4-c][1,7]naphthyridin-8-yl)((3R,5S)-3-methyl-5-(5-(trifluoromethoxy)-2-pyridinyl)-4-morpholinyl)methanone and ((3S)-4-amino-3-methyl-1,3-dihydrofuro[3,4-c][1,7]naphthyridin-8-yl)((3S,5R)-3-methyl-5-(5-(trifluoromethoxy)-2-pyridinyl)-4-morpholinyl)methanone] | 927 | > 10000 |  |  |
| C[C@@H]1COC[C@H](c2ccc(OC(F)(F)F)cn2)N1C(=O)c1cc2c3c(c(N)nc2cn1)[C@@H](C)OC3 (racemic) [Example 380, ((3R)-4-amino-3-methyl-1,3-dihydrofuro[3,4-c][1,7]naphthyridin-8-yl)((3R,5S)-3-methyl-5-(5-(trifluoromethoxy)-2-pyridinyl)-4-morpholinyl)methanone and ((3R)-4-amino-3-methyl-1,3-dihydrofuro[3,4-c][1,7]naphthyridin-8-yl)((3S,5R)-3-methyl-5-(5-(trifluoromethoxy)-2-pyridinyl)-4-morpholinyl)methanone] | 48 | 906 |  |  |
| Nc1nc2cnc(C(=O)N3CCOCC3c3ccc(OC(F)F)c(F)c3)cc2c2c1COC2 (racemic) [Example 383, (4-amino-1,3-dihydrofuro[3,4-c][1,7]naphthyridin-8-yl)((3R)-3-(4-(difluoromethoxy)-3-fluorophenyl)-4-morpholinyl)methanone and (4-amino-1,3-dihydrofuro[3,4-c][1,7]naphthyridin-8-yl)((3S)-3-(4-(difluoromethoxy)-3-fluorophenyl)-4-morpholinyl)methanone] |  |  | 437 | 13900 |
| Nc1nc2cc(Cl)c(C(=O)N3CCOCC3c3ccc(OC(F)F)nc3)cc2c2c1COC2 (racemic) [Example 384, (4-amino-7-chloro-1,3-dihydrofuro[3,4-c]quinolin-8-yl)((3R)-3-(6-(difluoromethoxy)-3-pyridinyl)-4-morpholinyl)methanone and (4-amino-7-chloro-1,3-dihydrofuro[3,4-c]quinolin-8-yl)((3S)-3-(6-(difluoromethoxy)-3-pyridinyl)-4-morpholinyl)methanone] |  |  | 23 | 1680 |
